Measurements as given in patent US9908877B2, “Imidazo[1,5-a]pyridinium ion fluorophores, and methods of making and using the same” (Indiana University Research and Technology Corporation, priority 2013, dated 2018).
“And” between values parts separate entries of the source, which are not always exact repeats. Equal entries are not always repeated.

Tests used:
Type in all cases: physicochemical
[1] = Fluorescence emission spectrum (maximum emission wavelength)
Protocol: Method for Obtaining a Fluorescence Emission Spectrum
Fluorescence emission spectra are obtained and recorded on a QM-4-CW Spectrofluorometer using FeliX32 software (Photon Technology International, Inc., Birmingham, N.J.).
(§1) The compounds were analyzed at 298° K according to the Method for Obtaining Ultraviolet-Visible Light Spectrum (30 μM acetonitrile) to obtain the maximum absorbance wavelength (λabs,max), Method for Obtaining Fluorescence Emission Spectrum (30 μM acetonitrile) to obtain the maximum emission wavelength (λem,max) and Method for Determining Quantum Yield (ΦF) (30 μM acetonitrile) at the concentration, in the solvent, and with the counter ion indicated in Table 1. The compounds included hydrogen at each R group that is not otherwise specified.
(§2) Compounds 6, 7, 9, 11-14 and 21 were analyzed according to: the Method for Obtaining Ultraviolet-Visible Light Spectrum to obtain the maximum absorbance wavelength (λabs,max), the Method for Obtaining Fluorescence Emission Spectrum to obtain the maximum emission wavelength (λem,max), and the Method for Determining Quantum Yield (ΦF) in the solvent and with the counter ion indicated in Table 3.

[2] = Fluorescence response to trifluoroacetic acid / DBU in acetonitrile
Protocol: A 30 μM solution of Compound 6 in acetonitrile was prepared by adding 99 μL of a stock solution of 3.04 mM Compound 6 in methanol to 10 mL of acetonitrile. An initial fluorescence emission spectrum of the solution was obtained and is illustrated by curve (i) in FIG. 1A.
A series of approximately 13.8 μL aliquots of trifluoroacetic acid (TFA) were then added to the 30 μM solution of Compound 6 until a total concentration of 60.0 mM of TFA was present in the solution. (The total amount of TFA present in the solution corresponded to 2000 equivalents of acid per equivalent of Compound 6.) The fluorescence emission spectrum of the resulting solution was obtained and is illustrated by curve (ii) in FIG. 1A.
A base, i.e., 1,8-diazabicyclo[5.4.0]undec-7-ene (DBU), was then added to the solution to neutralize the acid until a concentration of 90 mM DBU was obtained. The fluorescence emission spectrum of the resulting solution was obtained and is illustrated by curve (iii) in FIG. 1A. The fluorescence emission intensity at λem,max=565 nm increased as the amount of base present in the system increased and the fluorescence emission intensity at λem,max=405 nm decreased as the amount of base present in the system increased, which reflected Compound 6's ratiometric response to the changing base concentration in acetonitrile.
A 30 μM solution of Compound 7 in acetonitrile was prepared by adding 84 μL of a stock solution of 3.58 mM Compound 7 in methanol to 10 mL of acetonitrile. The emission spectrum of the solution was then obtained and is illustrated by curve (i) in FIG. 1B.
A series of approximately 13.8 μL aliquots of TFA were then added to the 30 μM solution of Compound 7 until a total concentration of 60.0 mM TFA was present in the solution (which corresponded to 2000 equivalents of acid per equivalent of Compound 7). The fluorescence emission spectrum of the solution was obtained and is illustrated by curve (ii) in FIG. 1B.
After the 60 mM TFA concentration was achieved, DBU was gradually added to the solution until a total concentration of 90 mM DBU was present in the solution. The fluorescence spectrum of the solution was obtained and is illustrated by curve (iii) in FIG. 1B.
An aliquot of 50 μL of trifluoroacetic acid was then added to the system, and the fluorescence emission spectrum was obtained and is illustrated by the curved line with a peak at 360 nm in FIG. 6A.
Compound 10 was placed in neat acetonitrile and its emission spectrum was monitored as trifluoroacetic acid was added to the acetonitrile in incremental amounts to achieve a solution that included an acid concentration ranging from 0 to 0.2 M. After each acid addition the sample was excited with radiation of a wavelength 340 nm, and its fluorescence emission spectrum was monitored. The results are illustrated in FIG. 7A.
The solution of Compound 10 in acetonitrile was titrated with trifluoroacetic acid (TFA). […] The first stage, which occurred with the addition of the initial aliquots of TFA, was a slight increase intensity at 580 nm, as illustrated in FIG. 7A. As more TFA was added to the system, a second transition occurred in which the emission at 580 nm began to decrease and as the emission at 400 nm began to increase, as illustrated in FIG. 7B. A plot of the emission intensity at 580 nm versus pH and at 400 nm versus pH is illustrated in FIG. 7C.
Compounds 10, 11, and 12 were then each individually added, at a concentration of 30 μM, to acetonitrile and the emission spectrum of each was monitored. The compounds emitted at 600 nm with an intensity of about 7.57×10^5 arbitrary units (a.u.) in neat acetonitrile. […] FIG. 8B illustrates the emission properties of Compound 12.

[3] = Ultraviolet-visible light spectrum (maximum absorbance wavelength)
Protocol: Method for Obtaining an Ultraviolet-Visible Light Spectrum
Ultraviolet-visible (UV-Vis) Light spectra are obtained and recorded on an Agilent 8453 spectrophotometer using ChemStation software (Agilent Technologies, Inc., Santa Clara, Calif.).
as §1, §2

[4] = Fluorescence emission in a series of organic solvents; conditions: 30 μM, excited at 360 nm
Protocol: Compound 6 was placed in the series of organic solvents at a concentration of 30 μM, excited with radiation at 360 nm, and monitored for fluorescence emission. The organic solvent, intensity of fluorescence emission (ET), and maximum emission wavelength in nm and cm^−1, are set forth below in Table 2.

[5] = Fluorescence quantum yield, integrating sphere
Protocol: Method for Determining Quantum Yield
Quantum yield is determined using an integrating sphere attached to a QM-4-CW Spectrofluorometer using FeliX32 software (Photon Technology International).
as §1, §2

[6] = Dimethylsulfoxide (ET(30) 45.1)

λem, max Em ([1]; H2O (pH not given), 30 μM): 580 nm
λem, max Em ([1]; H2O pH = 2.5, 30 μM): 400 nm
λem, max Em ([1]; MeCN + 13.8 uL TFA, 30 μM): 405 nm
λem, max Em ([1]; MeCN, 30 μM): 565 nm
λem,max (fluorescence emission) ([2]; 30 μM in acetonitrile in the absence of trifluoroacetic acid): 565 nm
λem,max (fluorescence emission) ([2]; 30 μM in acetonitrile in the presence of trifluoroacetic acid (60.0 mM TFA)): 400 nm and 405 nm
λabs, max Abs ([3]; H2O (pH not given), 30 μM): 350 nm
λabs, max Abs ([3]; H2O pH = 2.5, 30 μM): 350 nm
λabs, max Abs ([3]; MeCN + 13.8 uL TFA, 30 μM): 350 nm
λabs, max Abs ([3]; MeCN, 30 μM): 350 nm
maximum emission Wavelength ([4]; Acetonitrile (ET(30) 45.6)): 559 nm
maximum emission wavenumber ([4]; Acetonitrile (ET(30) 45.6)): 17889.09 cm⁻¹
maximum emission Wavelength ([4]; Benzene (ET(30) 34.3)): 567 nm
maximum emission wavenumber ([4]; Benzene (ET(30) 34.3)): 17636.68 cm⁻¹
maximum emission Wavelength ([4]; Chloroform (ET(30) 39.1)): 533 nm
maximum emission wavenumber ([4]; Chloroform (ET(30) 39.1)): 18761.73 cm⁻¹
maximum emission Wavelength ([4]; Dichloromethane (ET(30) 40.7)): 535 nm
maximum emission wavenumber ([4]; Dichloromethane (ET(30) 40.7)): 18691.59 cm⁻¹
maximum emission Wavelength [4, 6]: 567 nm
maximum emission wavenumber [4, 6]: 17636.68 cm⁻¹
maximum emission Wavelength ([4]; Hexane (ET(30) 31)): 561 nm
maximum emission wavenumber ([4]; Hexane (ET(30) 31)): 17825.31 cm⁻¹
maximum emission Wavelength ([4]; Tetrahydrofuran (ET(30) 37.4)): 541 nm
maximum emission wavenumber ([4]; Tetrahydrofuran (ET(30) 37.4)): 18484.29 cm⁻¹
maximum emission Wavelength ([4]; Toluene (ET(30) 33.9)): 568 nm
maximum emission wavenumber ([4]; Toluene (ET(30) 33.9)): 17605.63 cm⁻¹
maximum emission Wavelength ([4]; Water (ET(30) 63.1)): 576 nm
maximum emission wavenumber ([4]; Water (ET(30) 63.1)): 17361.11 cm⁻¹
[…]F (quantum yield) ([5]; H2O (pH not given), 30 μM): 16%
[…]F (quantum yield) ([5]; H2O pH = 2.5, 30 μM): 31%
[…]F (quantum yield) ([5]; MeCN + 13.8 uL TFA, 30 μM): 49%
[…]F (quantum yield) ([5]; MeCN, 30 μM): 59%
SMILES: CCN(CC)c1ccc(-c2c3cccc[n+]3cn2-c2ccc(OC)cc2)cc1.[Cl-] [Compound 6, 1-(4-(diethylamino)phenyl)-2-(4-methoxyphenyl)-2H-imidazo[1,5-a]pyridin-4-ium chloride]
